According to US8962660B2 (Bristol-Myers Squibb Company, priority 2013, dated 2015):

What follows are molecules tested against T1, human GPR120 (Homo sapiens, UniProt Q5NUL3) (assay: GPR120 pERK AlphaScreen SureFire assay (human)). Details: CHO cells stably transfected with short form of human GPR120.
T1 construct: expressed in transfected cells; host or cells: CHOA12 cells
T1 sequence (Q5NUL3 1-361): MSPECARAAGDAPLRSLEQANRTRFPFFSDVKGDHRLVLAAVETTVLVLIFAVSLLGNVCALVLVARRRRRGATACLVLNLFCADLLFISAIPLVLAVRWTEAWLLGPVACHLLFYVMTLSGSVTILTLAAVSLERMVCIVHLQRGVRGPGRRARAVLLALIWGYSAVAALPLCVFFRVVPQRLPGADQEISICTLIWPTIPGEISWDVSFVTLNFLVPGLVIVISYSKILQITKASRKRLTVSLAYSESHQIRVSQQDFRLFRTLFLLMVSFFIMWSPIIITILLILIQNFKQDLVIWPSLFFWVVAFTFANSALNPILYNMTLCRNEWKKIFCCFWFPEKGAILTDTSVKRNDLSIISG
Format: cell-based
From the text: GPR120 activity was monitored by measuring phosphorylation of ERK (pERK), since G protein receptors are known to activate the ERK signaling cascade either directly and/or through recruitment of arrestin that serves as a scaffold for downstream signaling events.
GPR120 pERK AlphaScreen SureFire Assay
The human and mouse GPR120-mediated intracellular phosphorylated ERK assays were established using CHOA12 cells stably transfected with the short form of human or mouse GPR120 receptor. Cells were cultured in growth medium consisting of F-12 media (Invitrogen Cat. #11765) with 5% Charcoal/Dextran FBS (Invitrogen Cat. #12676-029), 500 μg/mL GENETICIN® (Life Technologies Cat. #10131-027) and 250 μg/mL Zeocin (Invitrogen Cat. #R250-01). Cells were cryo preserved at a concentration of 2×10^7 cells/mL, in 90% Charcoal/Dextran FBS and 10% DMSO, and frozen in liquid nitrogen at a low passage number.
For the pERK assay, 2×10^7 cells/mL cryopreserved human and mouse cells were thawed rapidly in a 37° C. water bath and added to a T-225 flask containing 50 mL growth medium. The flasks were placed in a tissue culture incubator overnight (37° C., 5% CO2). The next day, cells were harvested with trypsin (Gibco Cat. #25300-054), resuspended in serum-containing growth medium and counted using a Cellometer and volume adjusted to a concentration of 0.6×10^6cells/mL. Cells were plated into 384-well clear bottom tissue culture plates (BD Cat. #353962) at 50 μL/well, for a density of 30,000 cells/well using a MULTIDROP® and incubated for 16-18 hours (overnight) at 37° C. with 5% CO2. The next day, cells were serum starved in 30 μL of F-12 media without any serum or antibiotics for 2 hours at 37° C.
Test compounds were 3-fold, 11-point serially diluted in DMSO in a REMP assay plate (Matrix Cat. #4307) by Tecan and 5 μL was transferred into an ECHO source plate (LABCYTE® Cat. #LC-0200). Cells were then stimulated with 50 nL of compound dilutions using ECHO liquid handler for 7 minutes at 37° C. Compounds ranged from final assay concentrations of 33.33 μM to 0.56 nM.
The media was then dumped and cells lysed with 20 μL of 1× Lysis buffer from the AlphaScreen SureFire Phospho-ERK 1/2 Kit (Perkin Elmer Cat. #6760617M). The lysis buffer was diluted 5-fold with water before use. The plate was agitated on a shaker for 10 minutes after which 2 μL was transferred into a 384-well white proxiplate (Perkin Elmer Cat. #6008289). The SureFire assay reagent mix was prepared by mixing 60 parts Reaction Buffer, 10 parts Activation Buffer, 1 part Donor Beads, 1 part Acceptor Beads (Perkin Elmer Cat. #TGRES10K). 3.5 μL/well of this reagent mix was manually added to the proxiplate with a multichannel pipettor. Plates were spun down at 1000 rpm for 2 minutes, followed by light-protected incubation at room temperature for 2 hours. The plates were read on the Alpha-technology compatible Envision multilabel plate reader using AlphaScreen protocol according to manufacturer's specifications. The agonist effect of compounds was expressed as 100×(average sample−average blank)/(average total−average blank) where sample is the luminescence activity in the presence of test compound, blank is equal to the luminescence activity in the presence of DMSO control and the total is signal induced by 50 μM linolenic acid as reference compound. Activation data for the test compound over a range of concentrations was plotted as percentage activation of the test compound (100%=maximum response). After correcting for background, EC50 values were determined The EC50 is defined as the concentration of test compound which produces 50% of the maximal response and was quantified using the 4 parameter logistic equation to fit the data.
The human and mouse GPR120-mediated intracellular phosphorylated ERK assays were also established using CHO-K1 cells stably transfected with the short form of human or mouse GPR120 receptor. […]

EC50 [nM] | Structure (SMILES)
1030 | CCCC(C)Oc1cccc(C23CCC(CCOCC(=O)O)(CC2)CO3)c1 (racemic) [Example 53, 2-(2-(1-(3-(Pentan-2-yloxy)phenyl)-2-oxabicyclo[2.2.2]octan-4-yl)ethoxy)acetic acid]
360 | OCC(O)CCCC12CCC(c3cccc(Oc4ccccc4)c3)(CC1)OC2 (single isomer, unassigned) [Example 59, S-5-(1-(3-Phenoxyphenyl)-2-oxabicyclo[2.2.2]octan-4-yl)pentane-1,2-diol]
370 | O=C(O)C1CC1CCC12CCC(c3cc(F)cc(Oc4ccccc4)c3)(CC1)OC2 (single isomer, unassigned) [Example 63, 2-(2-(1-(3-Fluoro-5-phenoxyphenyl)-2-oxabicyclo[2.2.2]octan-4-yl)ethyl)cyclopropanecarboxylic acid]
260 | O=C(O)[C@@H]1C[C@H]1CCC12CCC(c3cc(F)cc(Oc4cccc(F)c4)c3)(CC1)OC2 (single isomer, unassigned) [Example 64, 2-(2-(1-(3-Fluoro-5-(3-fluorophenoxy)phenyl)-2-oxabicyclo[2.2.2]octan-4-yl)ethyl) cyclopropanecarboxylic acid]
330 | O=C(O)[C@@H]1C[C@H]1CCC12CCC(c3cccc(Oc4cccc(F)c4)c3)(CC1)OC2 (single isomer, unassigned) [Example 65, 2-(2-(1-(3-(3-Fluorophenoxy)phenyl)-2-oxabicyclo[2.2.2]octan-4 yl)ethyl)cyclopropane carboxylic acid]
720 | O=C(NCc1ncn[nH]1)[C@H]1C[C@@H]1CCC12CCC(c3cccc(Oc4ccccc4)c3)(CC1)OC2 (single isomer, unassigned) [Example 68, N-((1H-1,2,4-Triazol-5-yl)methyl)-2-(2-(1-(3-phenoxyphenyl)-2-oxabicyclo[2.2.2]octan-4-yl)ethyl)cyclopropanecarboxamide]
340 | O=C(O)[C@H]1C[C@@H]1COCC12CCC(c3cccc(Oc4ccccc4)c3)(CC1)OC2 (single isomer, unassigned) [Example 99]
200 | COc1cccc(C23CCC(CCCCC(=O)O)(CC2)CO3)c1 [Example 3, 5-(1-(3-Methoxyphenyl)-2-oxabicyclo[2.2.2]octan-4-yl)pentanoic acid]

Further lines, the molecule ahead of its results:

Structure (SMILES) | EC50 [nM]
O=C(O)C1CC1CCC12CCC(c3cccc(Oc4ccccc4)c3)(CC1)OC2 (racemic) [Example 13, trans-2-(2-(1-(3-Phenoxyphenyl)-2-oxabicyclo[2.2.2]octan-4-yl)ethyl)cyclopropanecarboxylic acid] | 350
O=C(O)[C@@H]1C[C@@H]1CCC12CCC(c3cccc(Oc4ccccc4)c3)(CC1)OC2 (racemic) [Example 32, Cis-2-(2-(1-(3-phenoxyphenyl)-2-oxabicyclo[2.2.2]octan-4-yl)ethyl)cyclopropanecarboxylic acid] | 580
OCC(O)CCCC12CCC(c3cccc(Oc4ccccc4)c3)(CC1)OC2 (racemic) [Example 58, 5-(1-(3-Phenoxyphenyl)-2-oxabicyclo[2.2.2]octan-4-yl)pentane-1,2-diol] | 290
O=C(O)[C@@H]1C[C@H]1CCC12CCC(c3cccc(Oc4ccccc4)c3)(CC1)OC2 (single isomer, unassigned) [Example 15] | 480
O=C(O)C[C@H]1C[C@@H]1CC12CCC(c3cccc(Oc4ccccc4)c3)(CC1)OC2 (single isomer, unassigned) [Example 17] | 260
O=C(O)C[C@@H]1C[C@H]1CC12CCC(c3cccc(Oc4ccccc4)c3)(CC1)OC2 (single isomer, unassigned) [Example 18] | 410
OC[C@H](O)CCCC12CCC(c3cccc(Oc4ccccc4)c3)(CC1)OC2 (single isomer, unassigned) [Example 60, R-5-(1-(3-phenoxyphenyl)-2-oxabicyclo[2.2.2]octan-4-yl)pentane-1,2-diol] | 570
O=C(NCc1ncn[nH]1)[C@@H]1C[C@H]1CCC12CCC(c3cccc(Oc4ccccc4)c3)(CC1)OC2 (single isomer, unassigned) [Example 62, N-((1H-1,2,4-Triazol-5-yl)methyl)-2-(2-(1-(3-phenoxyphenyl)-2-oxabicyclo[2.2.2]octan-4-yl)ethyl) cyclopropanecarboxamide] | 1220
CC(C)COc1cccc(C23CCC(CC[C@@H]4C[C@H]4C(=O)O)(CC2)CO3)c1 (single isomer, unassigned) [Example 66, 2-(2-(1-(3-Isobutoxyphenyl)-2-oxabicyclo[2.2.2]octan-4-yl)ethyl)cyclopropanecarboxylic acid] | 2080
COc1cccc(Oc2cccc(C34CCC(CC[C@@H]5C[C@H]5C(=O)O)(CC3)CO4)c2)c1 (single isomer, unassigned) [Example 67, 2-(2-(1-(3-(3-Methoxyphenoxy)phenyl)-2-oxabicyclo[2.2.2]octan-4-yl)ethyl)cyclopropanecarboxylic acid] | 750
CCNC(=O)[C@@H]1C[C@H]1CCC12CCC(c3cccc(Oc4ccccc4)c3)(CC1)OC2 (single isomer, unassigned) [Example 69, N-Ethyl-2-(2-(1-(3-phenoxyphenyl)-2-oxabicyclo[2.2.2]octan-4-yl)ethyl) cyclopropanecarboxamide] | 4230
O=C(O)[C@@H]1C[C@H]1CCC12CCC(c3cccc(Oc4cccc(O)c4)c3)(CC1)OC2 (single isomer, unassigned) [Example 70, 2-(2-(1-(3-(3-Hydroxyphenoxy)phenyl)-2-oxabicyclo[2.2.2]octan-4-yl)ethyl) cyclopropanecarboxylic acid] | 970
O=C(O)[C@@H]1C[C@H]1COCC12CCC(c3cccc(Oc4ccccc4)c3)(CC1)OC2 (single isomer, unassigned) [Example 98] | 1020
O=C(O)CCC12CCC(c3cccc(Oc4ccccc4)c3)(CC1)OC2 [Example 1, 3-(1-(3-Phenoxyphenyl)-2-oxabicyclo[2.2.2]octan-4-yl)propanoic acid] | 2310
O=C(O)CCCCC12CCC(c3cccc(Oc4ccccc4)c3)(CC1)OC2 [Example 2] | 60
Cc1nc(-c2ccccc2)c(C23CCC(CCCCC(=O)O)(CC2)CO3)s1 [Example 4, 5-(1-(2-Methyl-4-phenylthiazol-5-yl)-2-oxabicyclo[2.2.2]octan-4-yl)pentanoic acid] | 1600
O=C(O)CCOCC12CCC(c3cccc(Oc4ccccc4)c3)(CC1)OC2 [Example 5, 3-((1-(3-Phenoxyphenyl)-2-oxabicyclo[2.2.2]octan-4-yl)methoxy)propanoic acid] | 80
CC(C)Oc1cccc(C23CCC(CCOCC(=O)O)(CC2)CO3)c1 [Example 7, 2-(2-(1-(3-Isopropoxyphenyl)-2-oxabicyclo[2.2.2]octan-4-yl)ethoxy)acetic acid] | 7540
O=C(O)COCCC12CCC(c3cccc(OC4CCCCC4)c3)(CC1)OC2 [Example 8, 2-(2-(1-(3-(Cyclohexyloxy)phenyl)-2-oxabicyclo[2.2.2]octan-4-yl)ethoxy)acetic acid] | 1050
